# Where two headings read alike, the source gives them in different places.
# Assays:
# [1] = tested on: Klebsiella pneumoniae KP109, ATCC 13883; assay: MIC assay, KP109; assay type: cell-based; details: ATCC13883, Table 9, read-out: MIC Klebsiella pneum ATCC 13883
# [2] = tested on: Staphylococcus aureus SA161, HA-MRSA, tetracycline-resistant, tet(M); assay: MIC assay, SA161; assay type: cell-based
# [3] = tested on: S. pneumoniae isolates (Eurofins-Medinet, recent clinical isolates); assay: MIC50 and MIC90 analysis (Example 22)
# Experimental: Frozen bacterial strains were thawed and subcultured onto Mueller Hinton Broth (MHB) or other appropriate media (Streptococcus requires blood and Haemophilus requires hemin and NAD). Following incubation overnight, the strains were subcultured onto Mueller Hinton Agar and again incubated overnight. […] Isolated colonies were selected to prepare a starting inoculum equivalent to a 0.5 McFarland standard. […] Antibiotics (stored frozen, thawed and used within 3 hours of thawing) and compounds were further diluted to the desired working concentrations.
# The assays were run as follows. Fifty μL of MHB was added to wells 2-12 of a 96-well plate. One hundred μL of appropriately diluted antibiotic or compound was added to well 1. Fifty μL of antibiotics or compound was removed from well 1 and added to well 2 and the contents of well 2 mixed by pipetting up and down five times. Fifty μL of the mixture in well 2 was removed and added to well 3 and mixed as above. Serial dilutions were continued in the same manner through well 12. Fifty μL was removed from well 12 so that all contained 50 μL. Fifty μL of the working inoculum was then added to all test wells. A growth control well was prepared by adding 50 μL of working inoculum and 50 μL of MHB to an empty well. The plates were then incubated at 37° C. overnight, removed from the incubator and each well was read on a plate reading mirror. The lowest concentration (MIC) of test compound that inhibited the growth of the bacteria was recorded.
# MIC, MIC50 and MIC90 values were determined according to CLSI methodology. S. pneumoniae and H. influenzae isolates were obtained from Eurofins-Medinet and are recent clinical isolates. S. aureus strains were collected from various geographical sources.
# [4] = tested on: S. aureus ATCC 13709 (Smith); assay: Mouse systemic infection model, S. aureus septicemia; details: survival after 48 hours
# [5] = tested on: Staphylococcus aureus SA101, ATCC 29213, MSSA; assay: MIC assay, SA101; assay type: cell-based
# [6] = tested on: E. coli S30 extract system, coupled in vitro transcription/translation, firefly luciferase readout; assay: In vitro transcription/translation (TnT) assay; assay type: biochemical; details: Table 8
# [7] = Pharmacokinetic analysis in Sprague-Dawley rats; details: IV, single dose 1 mg/kg, mean
# [8] = tested on: Streptococcus pneumoniae SP106, ATCC 49619; assay: MIC assay, SP106; assay type: cell-based
# [9] = tested on: Enterococcus faecalis EF103, ATCC 29212; assay: MIC assay, EF103; assay type: cell-based
# E. coli ATCC 25922 = assay: Mouse systemic infection model, E. coli septicemia; details: survival after 48 hours
# [10] = tested on: Staphylococcus aureus SA100, ATCC 13709, MSSA, Smith strain; assay: MIC assay, SA100; assay type: cell-based
# [11] = tested on: Enterobacter cloacae EC108, ATCC 13047; assay: MIC assay, EC108; assay type: cell-based; details: ATCC13047, Table 9, read-out: MIC Enterobacter cloaceae ATCC 13047
# [12] = tested on: tet(M) strains of S. aureus; assay: MIC, CLSI methodology, recent clinical isolates (Example 21); assay type: cell-based; details: Staphylococcus aureus, read-out: MIC against tet(M) strains of S. aureus
# Experimental: (§1) The assays were run as follows.
# (§2) The antibacterial activities of Compounds MIC values were determined according to CLSI methodology. Recent clinical isolates were obtained from Eurofins-Medinet. Antibiotics were obtained from standard commercial sources.
# [13] = tested on: tet(M) strains of S. pneumoniae; assay: as above; assay type: cell-based; details: Streptococcus pneumoniae, read-out: MIC against tet(M) strains of S. pneumoniae
# Experimental: as §1, §2
# [14] = tested on: tet(K) strains of S. aureus; assay: as above; assay type: cell-based; details: Staphylococcus aureus, read-out: MIC against tet(K) strains of S. aureus
# Experimental: as §1, §2
# [15] = tested on: tet(M) and tet(S) strains of E. faecalis; assay: as above; assay type: cell-based; details: Enterococcus faecalis, read-out: MIC against tet(M) and tet(S) strains of E. faecalis
# Experimental: as §1, §2
# [16] = tested on: Streptococcus pneumoniae SP160, tetracycline-resistant, tet(M); assay: MIC assay, SP160; assay type: cell-based
# [17] = tested on: Enterococcus faecalis EF159, tetracycline-resistant, tet(M); assay: MIC assay, EF159; assay type: cell-based
# [18] = tested on: Pseudomonas aeruginosa PA111, ATCC 27853; assay: MIC assay, PA111; assay type: cell-based; details: ATCC27853, Table 9, read-out: MIC P. aeruginosa ATCC 27853
# [19] = tested on: E. coli DH10B(pBAD-tetM), expressing tet(M); assay: MIC against recombinant E. coli expressing tet(M); assay type: cell-based; details: for MIC: Escherichia coli
# Source text: (§3) Constructs were transformed into E. coli DH10B for expression. Recombinant strains were pre-induced under optimized conditions with L-arabinose prior to use as inocula in CLSI standardized MIC assays.
# in vivo = details: Sprague-Dawley, rat
# [20] = tested on: E. coli DH10B(pBAD-tetK), expressing tet(K); assay: MIC against recombinant E. coli expressing tet(K); assay type: cell-based; details: for MIC: Escherichia coli
# Source text: as §3
# [21] = tested on: Acinetobacter baumannii AB110, ATCC 19606; assay: MIC assay, AB110; assay type: cell-based; details: ATCC19606, Table 9, read-out: MIC A.baum AB110
# [22] = tested on: S. aureus clinical isolates; assay: MIC50, MIC90 and MIC range, panel of clinical isolates (Example 20); assay type: cell-based; details: MRSA, 30 isolates; in µg/mL
# Experimental: as §1
# (§4) Both values, as well as the MIC range (the lowest and highest MIC value observed for a collection of organisms), were determined for the isolates listed in Table 3.
# [23] = tested on: E. faecalis clinical isolates; assay: as above; assay type: cell-based; details: 24 isolates, in µg/mL
# Experimental: as §1, §4
# [24] = tested on: S. pneumoniae clinical isolates; assay: as above; assay type: cell-based; details: 19 isolates, in µg/mL
# Experimental: as §1, §4
smiles,measurement,setting,value
CN(C)CC(C)(C)CNc1nc(Cl)c2c(c1O)C(=O)C1=C(O)[C@]3(O)C(=O)C(C(N)=O)=C(O)[C@@H](N(C)C)[C@@H]3C[C@@H]1C2 [Compound 151],MIC,[1],2 µg/mL
same,MIC,"[2]; Table 8, read-out: MIC S. aureus MRSA, tetM",2 µg/mL
same,MIC,"[2]; Table 9, read-out: MIC MRSA (tet)M SA161",2 µg/mL
same,MIC Range,[3]; S. pneumoniae (n = 20),≦0.016-0.063 μg/ml
same,MIC50,[3]; Streptococcus pneumoniae,≤ 0.016 µg/mL
same,MIC90,[3]; Streptococcus pneumoniae,0.063 µg/mL
same,PD50 in the mouse septicemia model against S. aureus,"[4]; CD-1 mice, IP infection, intravenous treatment one hour post-challenge",0.36 mg/kg
same,PD50,"[4]; mouse septicemia, S. aureus ATCC 13709, intravenous treatment one hour post-challenge",0.36 mg/kg
same,MIC,"[5]; Table 8, read-out: MIC S. aureus ATCC 29213",0.25 µg/mL
same,MIC,"[5]; Table 9, read-out: MIC S. aureus ATCC 29213",0.25 µg/mL
same,E. coli TnT,[6],0.7 µg/mL
same,Clobs,[7],3.3723 mL/min/kg
same,Vzobs,[7],1.25614 L/kg
same,half-life,[7],258 min
same,MIC,"[8]; ATCC49619, Table 8, read-out: MIC S. pneumoniae ATCC 49619",0.063 µg/mL
same,MIC,"[8]; ATCC49619, Table 9, read-out: MIC S. pneum ATCC 49619",0.016 µg/mL
same,MIC,"[9]; Enterococcus faecalis, ATCC29212, Table 8, read-out: MIC E. faecalis ATCC 29212",0.25 µg/mL
same,MIC E. faecalis ATCC 29212,[9]; Table 9,0.25 µg/mL
same,PD50 in the mouse septicemia model against E. coli,"E. coli ATCC 25922; CD-1 mice, IP infection, treatment one hour post-challenge",17.0 mg/kg
same,PD50,"E. coli ATCC 25922; mouse septicemia, E. coli ATCC 25922, treatment one hour post-challenge",17.0 mg/kg
same,MIC,"[10]; Table 9, read-out: MIC S. aureus ATCC 13709",0.5 µg/mL
same,MIC,"[10]; Table 12, read-out: MIC S. aureus ATCC 13709",0.5 µg/mL
same,MIC,[11],2 µg/mL
same,MIC,[12],≤ 8 µg/mL
same,MIC,[13],≤ 0.25 µg/mL
same,MIC,[14],≤ 1 µg/mL
same,MIC,[15],≤ 4 µg/mL
same,MIC,"[16]; Table 8, read-out: MIC S. pneumoniae tetM",0.5 µg/mL
same,MIC,"[16]; Table 9, read-out: MIC S. pneum SP160 (tet)M",0.125 µg/mL
same,MIC,"[17]; Table 8, read-out: MIC E. faecalis tetM",2 µg/mL
same,MIC,"[17]; Table 9, read-out: MIC E. faecalis EF159 (tet)M",2 µg/mL
same,MIC,[18],32 µg/mL
same,MIC,"[19]; read-out: MIC, TetM induced",1 µg/mL
same,MIC,"[19]; read-out: MIC, Uninduced",0.5 µg/mL
same,Ratio (TetM induced / Uninduced),[19]; ratio of MICs,2
same,Effect of expression of (tet)M on activity,[19]; result in words,minimally affected
same,AUC(0-t),"in vivo; iv, 1 mg/kg",4870 ng·h/mL
same,Cmax,"in vivo; iv, 1 mg/kg",2400 ng/mL
same,Tmax,"in vivo; iv, 1 mg/kg",13.2 min
same,bioavailability,"in vivo; oral, 10 mg/kg",0.8%
same,AUC(0-t),"in vivo; po, 10 mg/kg",395 ng·h/mL
same,Cmax,"in vivo; po, 10 mg/kg",69.8 ng/mL
same,Tmax,"in vivo; po, 10 mg/kg",49.8 min
same,half-life,"in vivo; po, 10 mg/kg",313 min
same,MIC,"[20]; read-out: MIC, TetK Induced",1 µg/mL
same,MIC,"[20]; read-out: MIC, Uninduced",1 µg/mL
same,"MIC ratio, TetK induced to uninduced",[20]; ratio of TetK induced to uninduced MIC,1
same,Effect of expression of (tet)K on activity,[20]; result in words,unaffected
same,MIC,[21],2 µg/mL
same,MIC Range,[22],0.5-8
same,MIC Range,[23],0.031-4
same,MIC Range,[24],<=0.016-0.25
